Assay results published in patent US20250049787A1, “TREATMENT FOR ACUTE MYELOID LEUKEMIA OR LYMPHOMA” (UNIVERSITY HEALTH NETWORK, priority 2021, published 2025).

Tested on: MV-4-11 xenografts
Assay: MV-4-11 xenograft model of human AML in CD-1 Nude mice
Assay type: in vivo
Settings: 0.5 mg/kg IP, QW×4 vs vehicle; p=0.137
Description: Female 8- to 10-week-old CD-1 Nude mice (Charles River Laboratories) with established MV-4-11 xenografts were treated for 21 days (n=8). MV-4-11 cells is a human AML cell line which endogenously expresses a Fms Related Receptor Tyrosine Kinase 3 (FLT3) internal tandem duplication (ITD) mutation. Animal weights were monitored daily, and tumor volume was measured three times per week. Tumor volume (mm^3) was defined as follows, length×width^2/2. Percentage tumor growth inhibition (% TGI) was defined as follows, 100×[1−(TVf,treated−TVi,treated)/(TVf,control−TVi,control)], where TVf is the average tumor volume at the end of study, and TVi is the average tumor volume at the initiation of treatment. In cases where tumor regression occurred, percentage tumor regression was defined as follows, 100×[1−(TVf,treated/TVi,treated)]. At the completion of the study, the mice were sacrificed by an anesthetic overdose. The Institutional Animal Care and Use Committee of the University Health Network approved all animal procedures. […] Data are represented as mean±SEM. p values were calculated using Student's/test.

Structure (SMILES): CC[C@]1(O)C[C@H]2CN(CCc3c([nH]c4ccccc34)[C@@](C(=O)OC)(c3cc4c(cc3OC)N(C=O)[C@H]3[C@@](O)(C(=O)OC)[C@H](OC(C)=O)[C@]5(CC)C=CCN6CC[C@]43[C@@H]65)C2)C1 [Vincristine, reference compound]
- Day 10 TGI (tumor growth inhibition): 62%
